Source: US4252808A, “β-Lactam antibacterial agents, their use in pharmaceutical compositions, the process for their preparation and intermediates for use in that process” (Beecham Group Limited, priority 1978, dated 1981)
Values after ≈ are worked out from the molar mass of the structure shown. Structures can show the parent of a compound that is named as a salt.

Tests used:
Format in all cases: cell-based
S. faecalis 1 [1] = assay: MIC, serial dilution in nutrient agar with 5% horse blood (Table 1); settings: Enterococcus faecalis, inoculum 0.001 ml undiluted broth culture
Method: (§1) | *Serial dilution in nutrient agar containing 5% horse blood, inoculum | 0.001 ml undiluted broth culture.

E. cloacae Nl [2] = assay: as above; settings: Enterobacter cloacae, inoculum 0.001 ml undiluted broth culture
Method: as §1

P. morganii = assay: as above; settings: Morganella morganii, inoculum 0.001 ml undiluted broth culture
Method: as §1

K. aerogenes A [3] = assay: as above; settings: Klebsiella aerogenes, inoculum 0.001 ml undiluted broth culture
Method: as §1

P. rettgeri = assay: as above; settings: Providencia rettgeri, inoculum 0.001 ml undiluted broth culture
Method: as §1

S. aureus 1517 [4] = assay: as above; settings: Staphylococcus aureus, inoculum 0.001 ml undiluted broth culture
Method: as §1

E. coli JT 4 = assay: as above; settings: Escherichia coli, JT4, inoculum 0.001 ml undiluted broth culture
Method: as §1

P. mirabilis C 977 [5] = assay: as above; settings: Proteus mirabilis, C977, inoculum 0.001 ml undiluted broth culture
Method: as §1

S. aureus Russell = assay: as above; settings: Staphylococcus aureus, inoculum 0.001 ml undiluted broth culture
Method: as §1

S. aureus Oxford [6] = assay: as above; settings: Staphylococcus aureus, inoculum 0.001 ml undiluted broth culture
Method: as §1

B. subtilis [7] = assay: as above; settings: Bacillus subtilis, inoculum 0.001 ml undiluted broth culture
Method: as §1

S. faecalis 1 [8] = assay: MIC, serial dilution in DST agar with 10% horse blood (Table 2); settings: Enterococcus faecalis, inoculum diluted 10^-2
Excerpt: (§2) *Serial dilution in DST agar containing 10% horse blood, inoculum 0.001 m
(§3) broth culture diluted 10^-2 for Grampositive and 10^-4 for
(§4) Gramnegative organisms.

E. cloacae Nl [9] = assay: as above; settings: Enterobacter cloacae, inoculum diluted 10^-4
Excerpt: as §2, §3, §4

K. aerogenes A [10] = assay: as above; settings: Klebsiella aerogenes, inoculum diluted 10^-4
Excerpt: as §2, §3, §4

S. pneumoniae CN 33 = assay: as above; settings: Streptococcus pneumoniae, CN33, inoculum diluted 10^-2
Excerpt: as §2, §3, §4

S. aureues Russell = assay: as above; settings: Staphylococcus aureus, inoculum diluted 10^-2
Excerpt: as §2, §3, §4

S. aureus 1517 [11] = assay: as above; settings: Staphylococcus aureus, inoculum diluted 10^-2
Excerpt: as §2, §3, §4

P. rettgeri WM 16 = assay: as above; settings: Providencia rettgeri, WM16, inoculum diluted 10^-4
Excerpt: as §2, §3, §4

S. pyogenes CN 10 [12] = assay: as above; settings: Streptococcus pyogenes, CN10, inoculum diluted 10^-2
Excerpt: as §2, §3, §4

P. mirabilis C 977 [13] = assay: as above; settings: Proteus mirabilis, C977, inoculum diluted 10^-4
Excerpt: as §2, §3, §4

P. morganii 1580 = assay: as above; settings: Morganella morganii, inoculum diluted 10^-4
Excerpt: as §2, §3, §4

E. coli 0111 = assay: as above; settings: Escherichia coli, inoculum diluted 10^-4
Excerpt: as §2, §3, §4

S. aureus Oxford [14] = assay: as above; settings: Staphylococcus aureus, inoculum diluted 10^-2
Excerpt: as §2, §3, §4

B. subtilis [15] = assay: as above; settings: Bacillus subtilis, inoculum diluted 10^-2
Excerpt: as §2, §3, §4

S. pyogenes CN 10 [16] = assay: MIC, serial dilution in nutrient agar with 5% horse blood (Table 1); settings: Streptococcus pyogenes, CN10, inoculum 0.001 ml undiluted broth culture
Method: as §1

SMILES	MIC (S. faecalis 1 [1])	MIC (P. morganii)	MIC (K. aerogenes A [3])	MIC (P. rettgeri)	MIC (S. aureus 1517 [4])	MIC (E. coli JT 4)	MIC (P. mirabilis C 977 [5])	MIC (S. aureus Russell)	MIC (S. aureus Oxford [6])	MIC (B. subtilis [7])	MIC (S. faecalis 1 [8])	MIC (E. cloacae Nl [9])	MIC (K. aerogenes A [10])	MIC (S. pneumoniae CN 33)	MIC (S. aureues Russell)	MIC (S. aureus 1517 [11])	MIC (P. rettgeri WM 16)	MIC (S. pyogenes CN 10 [12])	MIC (P. mirabilis C 977 [13])	MIC (P. morganii 1580)	also measured
CC1=C(C(=O)O)N2C(=O)[C@@H](NC(=O)[C@H](O)c3ccccc3)[C@H]2n2nncc21 [Compound 42, (3aR,4S) 4,5-Dihydro-5-oxo-8-methyl-4-D-mandelylamino-3aH-azeto[1,2-a]v-triazolo[3,4-c]pyrimidine-7-carboxylic acid]	> 100 µg/mL	100 µg/mL (≈ 271 µM)	> 100 µg/mL	> 100 µg/mL	> 100 µg/mL	> 100 µg/mL	> 100 µg/mL	> 100 µg/mL	25 µg/mL (≈ 67.7 µM)	1 µg/mL (≈ 2.71 µM)											MIC (E. cloacae Nl [2]): > 100 µg/mL
CC1=C(C(=O)O)N2C(=O)[C@@H](NC(=O)Cc3cccs3)[C@H]2n2nncc21 [Compound 43, (3aR,4S) 4,5-Dihydro-5-oxo-8-methyl-4-(2-thienylacetamido)-3aH-azeto[1,2-a]y-triazolo[3,4-c]pyrimidine-7-carboxylic acid]	2.5 µg/mL (≈ 6.96 µM)	> 100 µg/mL	50 µg/mL (≈ 139 µM)	> 100 µg/mL	2.5 µg/mL (≈ 6.96 µM)	> 100 µg/mL	10 µg/mL (≈ 27.8 µM)	2.5 µg/mL (≈ 6.96 µM)	1 µg/mL (≈ 2.78 µM)	< 0.2 µg/mL	5 µg/mL (≈ 13.9 µM)	> 100 µg/mL	2.5 µg/mL (≈ 6.96 µM)	≤ 0.2 µg/mL	1 µg/mL (≈ 2.78 µM)	5 µg/mL (≈ 13.9 µM)	> 100 µg/mL	≤ 0.2 µg/mL	2.5 µg/mL (≈ 6.96 µM)	2.5 µg/mL (≈ 6.96 µM)	MIC (E. coli 0111): 10 µg/mL (≈ 27.8 µM); MIC (S. aureus Oxford [14]): 2.5 µg/mL (≈ 6.96 µM); MIC (B. subtilis [15]): ≤ 0.2 µg/mL; MIC (S. pyogenes CN 10 [16]): < 0.2 µg/mL
CC1=C(C(=O)O)N2C(=O)[C@@H](NC(=O)C(C(=O)Oc3ccccc3)c3ccccc3)[C@H]2n2nncc21 (stereo partly drawn) [Compound 44, (3aR,4S) 4,5-Dihydro-5-oxo-8-methyl-4-DL (α-phenoxycarbonylphenyl-acetamido)-3aH-azeto[1,2-a]v-triazolo[3,4-c]pyrimidine-7-carboxylic acid]	> 100 µg/mL	> 100 µg/mL	50 µg/mL (≈ 106 µM)	> 50 µg/mL	> 100 µg/mL	> 100 µg/mL	50 µg/mL (≈ 106 µM)	100 µg/mL (≈ 211 µM)	50 µg/mL (≈ 106 µM)	25 µg/mL (≈ 52.8 µM)	> 100 µg/mL	50 µg/mL (≈ 106 µM)	10 µg/mL (≈ 21.1 µM)	10 µg/mL (≈ 21.1 µM)	25 µg/mL (≈ 52.8 µM)	100 µg/mL (≈ 211 µM)	10 µg/mL (≈ 21.1 µM)	10 µg/mL (≈ 21.1 µM)	10 µg/mL (≈ 21.1 µM)	10 µg/mL (≈ 21.1 µM)	MIC (E. coli 0111): 10 µg/mL (≈ 21.1 µM); MIC (S. aureus Oxford [14]): 25 µg/mL (≈ 52.8 µM); MIC (B. subtilis [15]): 25 µg/mL (≈ 52.8 µM); MIC (E. cloacae Nl [2]): > 100 µg/mL
CC1=C(C(=O)O)N2C(=O)[C@@H](NC(=O)[C@H](N)c3ccccc3)[C@H]2n2nncc21 [Compound 46, (3aR,4S)-4,5-Dihydro-5-oxo-8-methyl-4-D-α-phenylglycylamino-3aH-azeto[1,2-a]v-triazolo[3,4-c]pyrimidine-7-carboxylic acid trifluoroacetic acid salt]	> 100 µg/mL	> 100 µg/mL	> 100 µg/mL	> 100 µg/mL	> 100 µg/mL	> 100 µg/mL	> 100 µg/mL	> 100 µg/mL	> 100 µg/mL	100 µg/mL											MIC (E. cloacae Nl [2]): > 100 µg/mL
CC1=C(C(=O)O)N2C(=O)[C@@H](NC(=O)Cn3ncnn3)[C@H]2n2nncc21 [Compound 47, (3aR,4S)-4,5-Dihydro-5-oxo-8-methyl-4-(2-tetrazolylacetamido)-3aH-azeto[1,2-a]v-triazolo[3,4-c]pyrimidine-7-carboxylic acid]	50 µg/mL (≈ 145 µM)	> 100 µg/mL	> 100 µg/mL	> 100 µg/mL	> 100 µg/mL	> 100 µg/mL	> 100 µg/mL	5 µg/mL (≈ 14.5 µM)	2.5 µg/mL (≈ 7.24 µM)	0.5 µg/mL (≈ 1.45 µM)											MIC (E. cloacae Nl [2]): > 100 µg/mL; MIC (S. pyogenes CN 10 [16]): 1 µg/mL (≈ 2.9 µM)
CCSCC(=O)NC1C(=O)N2C(C(=O)O)=C(C)c3cnnn3C12 [Compound 48, (3aR,4S)-4,5-Dihydro-5-oxo-8-methyl-4-ethylthioacetamido 3aH-azeto[1,2a]v-triazolo[3,4c]pyrimidine-7-carboxylic acid]											25 µg/mL (≈ 74.1 µM)	> 100 µg/mL	50 µg/mL (≈ 148 µM)	1 µg/mL (≈ 2.96 µM)	5 µg/mL (≈ 14.8 µM)	25 µg/mL (≈ 74.1 µM)	> 100 µg/mL	0.5 µg/mL (≈ 1.48 µM)	10 µg/mL (≈ 29.6 µM)	25 µg/mL (≈ 74.1 µM)	MIC (E. coli 0111): 50 µg/mL (≈ 148 µM); MIC (B. subtilis [15]): 0.2 µg/mL (≈ 0.593 µM)
CC1=C(C(=O)O)N2C(=O)[C@@H](NC(=O)CC#N)[C@H]2n2nncc21 [Compound 49, (3aR,4S)-4,5-Dihydro-5-oxo-8-methyl-4-cyanoacetamido 3aH-azeto[1,2a]v-triazolo[3,4-c]pyrimidine-7-carboxylic acid]											25 µg/mL (≈ 82.7 µM)	> 100 µg/mL	100 µg/mL (≈ 331 µM)	5 µg/mL (≈ 16.5 µM)	25 µg/mL (≈ 82.7 µM)	100 µg/mL (≈ 331 µM)	> 100 µg/mL	2.5 µg/mL (≈ 8.27 µM)	50 µg/mL (≈ 165 µM)	100 µg/mL (≈ 331 µM)	MIC (E. coli 0111): 100 µg/mL (≈ 331 µM); MIC (S. aureus Oxford [14]): 5 µg/mL (≈ 16.5 µM); MIC (B. subtilis [15]): 2.5 µg/mL (≈ 8.27 µM)
CO/N=C(\C(=O)N[C@@H]1C(=O)N2C(C(=O)O)=C(C)c3cnnn3[C@H]12)c1ccco1 [Compound 50, (3aR,4R)-4,5-Dihydro-5-oxo-8-methyl-4-[(2-methoxyimino-2-fur-2'-yl)acetamido]-3aH-azeto[1,2-a]v-triazolo[3,4-c]pyrimidine-7-carboxylic acid]											> 100 µg/mL	> 100 µg/mL	100 µg/mL (≈ 259 µM)	10 µg/mL (≈ 25.9 µM)	25 µg/mL (≈ 64.7 µM)	100 µg/mL (≈ 259 µM)	> 100 µg/mL	1 µg/mL (≈ 2.59 µM)	50 µg/mL (≈ 129 µM)	100 µg/mL (≈ 259 µM)	MIC (E. coli 0111): 100 µg/mL (≈ 259 µM); MIC (B. subtilis [15]): 5 µg/mL (≈ 12.9 µM)
CC1=C(C(=O)O)N2C(=O)[C@@H](NC(=O)C(F)(F)F)[C@H]2n2nncc21 [Compound 51, (3aR,4S)-4,5-Dihydro-5-oxo-8-methyl-4-trifluoroacetamido 3aH-azeto[1,2-a]v-triazolo[3,4-c]pyrimidine-7-carboxylic acid]											100 µg/mL (≈ 302 µM)	> 100 µg/mL	> 100 µg/mL	50 µg/mL (≈ 151 µM)	> 100 µg/mL	> 100 µg/mL	> 100 µg/mL	25 µg/mL (≈ 75.5 µM)	> 100 µg/mL	> 100 µg/mL	MIC (E. coli 0111): 100 µg/mL (≈ 302 µM); MIC (S. aureus Oxford [14]): > 100 µg/mL; MIC (B. subtilis [15]): 5 µg/mL (≈ 15.1 µM)
CC(=O)OCC1=C(C(=O)O)N2C(=O)[C@@H](NC(=O)Cc3cccs3)[C@H]2n2nncc21 [Compound 57, (3aR,4S) 4,5-Dihydro-5-oxo-8-acetoxymethyl-4-(2-thienylacetamido)-3aH-azeto[1,2-a]v-triazolo[3,4-c]pyrimidine-7-carboxylic acid]	> 100 µg/mL	> 100 µg/mL	> 100 µg/mL	> 100 µg/mL	> 100 µg/mL	> 100 µg/mL	> 100 µg/mL	> 100 µg/mL	> 100 µg/mL	100 µg/mL (≈ 240 µM)											MIC (E. cloacae Nl [2]): > 100 µg/mL; MIC (S. pyogenes CN 10 [16]): > 100 µg/mL
Cc1nnc(SCC2=C(C(=O)O)N3C(=O)[C@@H](NC(=O)Cc4cccs4)[C@H]3n3nncc32)s1 [Compound 60, (3aR,4S) 4,5-Dihydro-5-oxo-8-[5-methyl(1,3,4-thiadiazol-2-yl)thiomethyl]-4-(2-thienylacetamido)-3aH-azeto[1,2-a]-v-triazolo[3,4-c]pyrimidine-7-carboxylic acid]	> 100 µg/mL	> 100 µg/mL	> 100 µg/mL	> 100 µg/mL	> 100 µg/mL	> 100 µg/mL	> 100 µg/mL	> 100 µg/mL	> 100 µg/mL	50 µg/mL (≈ 102 µM)	25 µg/mL (≈ 51.1 µM)	> 100 µg/mL	> 100 µg/mL	0.5 µg/mL (≈ 1.02 µM)	25 µg/mL (≈ 51.1 µM)	100 µg/mL (≈ 204 µM)	> 100 µg/mL	2.5 µg/mL (≈ 5.11 µM)	> 100 µg/mL	> 100 µg/mL	MIC (E. coli 0111): > 100 µg/mL; MIC (B. subtilis [15]): 5 µg/mL (≈ 10.2 µM); MIC (E. cloacae Nl [2]): > 100 µg/mL; MIC (S. pyogenes CN 10 [16]): > 100 µg/mL
